Tests used:
[1] = system: Cdk2; assay: Cdk2 kinase activity on immunoprecipitates from treated MCF7 cells; format: cell-based, human
Protocol: Effect of dysidiolide on the activity of Cdk2 and on the steady-state levels of Cdc25A and Cdc25C. MCF7 cells were treated for 2 or 4 hr with 0, 2 or 10 μM dysidiolide. A) The kinase activity of Cdk2 was assayed on immunoprecipitates using histone H1 as exogenous substrate. B) The steady-state levels of Cdc25 A and C were analyzed in total cell lysates with specific antibodies (Santa Cruz Biotechnology's sc097 and sc327 antibodies were used for detection of Cdc25 A and C, respectively).
Effect of a 24 hr treatment with 50 μM dysidiolide on the kinase activity of Cdk4, Cdk2 and Cdc2. Cdk were immunoprecipitated from MCF7 cell lysates obtained from cultures treated or not with dysidiolide for 24 hr. Histone H1 was used as substrate for Cdk2 and Cdc2, whereas GST-Rb was the substrate for Cdk4.
To further characterize the effects of dysidiolide on cell cycle control, experiments were conducted at the molecular level. As Cdc25s (A, B and C) are positive regulators of cyclin-dependent kinases (Cdk) (reviewed in Draetta and Eckstein, BBA 1332: M53-M63, 1997) inhibition of Cdc25 is expected to result in inhibition of Cdk activity. MCF7 cells were treated with 2 or 10 μM dysidiolide or with DMSO (controls) for 2 or 4 hr. Cell extracts were used to measure the steady-state levels of Cdc25 A and C, and Cdk activity. […]

[2] = system: MX1 tumor xenografts; assay: MX1 tumor xenografts in nude mice; format: in vivo; conditions: Sixty three mg/kg
Protocol: Dysidiolide inhibited the growth of MX1 tumor xenografts in nude mice. Sixty three mg/kg dysidiolide inhibited (A) tumor growth by 70% while (B) animal weight (and indication of overall toxicity) remained higher than 90% of controls.
Therapeutic Effects of Dysidiolide and Taxol in Nude Mice bearing MX-1. MX-1 cell 50 μg was implanted s.c. on day 0. Every other day i.v. treatments were given on day 3,5,7,9 and 11. The average tumor volume of control group on day 3, 7, 9, 11 and 13 were 62, 75, 113, 155 and 264 mm^3, respectively. Solvents: Dysidiolide [20-40 μl DMSO+100 μl (Cremophor: EtOH=1:1)+Saline] Taxol [Clinical use (Cremophor+EtOH=1:1)+Saline].

[3] = system: human tumor cell lines; assay: anchorage-dependent growth of human tumor cell lines; format: cell-based
Protocol: (B) Effect of dysidiolide on anchorage-dependent growth of human tumor cell lines. Cells were grown in multiwell plates and treated with either various drug concentrations or with dimethylsulfoxide (vehicle control). Cell number was determined and the inhibitory concentration to induce 50% growth inhibition (IC50) was determined. (C) Furthermore, dysidiolide inhibited the growth of immortalized human mammary epithelial cells transformed by either the oncogene ras, the receptor tyrosine kinase Neu, or both agents. Again, the IC50 for growth inhibition was in the low μM range (IC50 −3 μM dysidiolide).
In summary, the synthetic dysidiolide is an active drug in human tumor cell lines. It induces cytotoxicity, as detected by loss of Trypan blue exclusion and by the appearance of cells containing fragmented DNA via FACS analysis. […] Dysidiolide has the potential to be a cell cycle-targeted drug, which could be used alone or in combination with other treatments. In this regard, it may sensitize cells for DNA damaging treatments (i.e. act as a radiosensitizer). […] Cell lines derived from tumors of diverse origins were affected similarly.

[4] = system: Cdk4; assay: in vitro kinase assay of Cdk4 immunoprecipitated from treated TSU-Pr1 cells; format: cell-based, human; conditions: 3.33 μM, TSU-Pr1, as early as 3 hours in drug
Protocol: TSU-Pr1 cells were treated for 24 hours with either DMSO or 3.33 μM dysidiolide. Cells were pulse-labeled for 30 min with bromodeoxyuridine (BrdU) and analyzed by FACS. The R@ window contains BRDU-positive, S-phase cells. Consistent with the proposed inhibitory effect of dysidiolide on the positive cell cycle regulator Cdc25. the drug inhibited the activity of cyclin-dependent kinases (Cdk). Cdk4, 6 and 2 were immunoprecipitated from DMSO- or drug-treated TSU-Pr1 cell cultures. Activity was examined in vitro kinase assays. The activity of the three Cdks was inhibited in drug-treated cells, as early as 3 hours in drug.
In vitro kinase assays of Cdk. TSU-Pr1 cells were treated with 3.33 μM dysidiolide for 0-24 hours. Samples were collected at various times and the activity of Cdk4, 6 and 2 was determined. Cdks were immunoprecipitated with specific antibodies and incubated with radiolabeled ATP plus either histH1 (for Cdk2) or GST-Rb (for Cdk4 and 6). Reactions were separated on SDS-polyacrylamide gels and the amount of phosphorylated product was determined by radiometric analysis.

[5] = system: lung carcinoma and murine leukemia cell lines; conditions: cited from earlier work

C=C(C)CCC[C@@]1(C)CCC[C@H]2C1=CC[C@H](C)[C@]2(C)C[C@H](O)C1=CC(=O)O[C@@H]1O (racemic) [dysidiolide]
Cdk2 protein kinase activity ([1]; 50 μM, 24 hr): inhibition
Cdk2 activity ([1]; 2 or 10 μM, 2 or 4 hr): no significant changes
animal weight (indication of overall toxicity) [2]: higher than 90 % of controls
tumor growth inhibition [2]: 70%
cross-resistance with vinblastine or doxorubicin (MDR phenotype) ([3]; MCF7 vs. MCF/Adr and CEM vs. CEM/VBL100): no cross-resistance
IC50 ([3]; a number of human tumor cancer lines, read-out: IC50 for growth inhibition of human tumor cancer lines): 500 to 4500 nM
Cdk4 activity [4]: inhibited
growth of lung carcinoma and murine leukemia cell lines [5]: inhibits growth

From patent publication US6482851B1, “Synthesis of dysidiolide and uses thereof” (Sloan-Kettering Institute for Cancer Research, priority 1998, dated 2002)
